Laboratory results from ChEMBL document CHEMBL1157492, “Discovery of potent and cell-active allosteric dual Akt 1 and 2 inhibitors” (Bioorg Med Chem Lett, 2008).
Calls of active or inactive are those of the source. No cut-off for these calls is given here.

How the values were obtained:
[1] = molecular target: T1, RAC-alpha serine/threonine-protein kinase (Homo sapiens, UniProt P31749); test: Inhibition of Akt1 phosphorylation by HTRF assay
[2] = molecular target: T2, RAC-beta serine/threonine-protein kinase (Homo sapiens, UniProt P31751); test: Inhibition of Akt2 phosphorylation by HTRF assay
[3] = molecular target: T1, RAC-alpha serine/threonine-protein kinase; test: Inhibition of Akt1 phosphorylation in human by C33a cells by IPKA assay; type: cell-based
[4] = molecular target: T2, RAC-beta serine/threonine-protein kinase; test: Inhibition of Akt2 phosphorylation in human by C33a cells by IPKA assay; type: cell-based

T1 sequence (P31749 whole entry): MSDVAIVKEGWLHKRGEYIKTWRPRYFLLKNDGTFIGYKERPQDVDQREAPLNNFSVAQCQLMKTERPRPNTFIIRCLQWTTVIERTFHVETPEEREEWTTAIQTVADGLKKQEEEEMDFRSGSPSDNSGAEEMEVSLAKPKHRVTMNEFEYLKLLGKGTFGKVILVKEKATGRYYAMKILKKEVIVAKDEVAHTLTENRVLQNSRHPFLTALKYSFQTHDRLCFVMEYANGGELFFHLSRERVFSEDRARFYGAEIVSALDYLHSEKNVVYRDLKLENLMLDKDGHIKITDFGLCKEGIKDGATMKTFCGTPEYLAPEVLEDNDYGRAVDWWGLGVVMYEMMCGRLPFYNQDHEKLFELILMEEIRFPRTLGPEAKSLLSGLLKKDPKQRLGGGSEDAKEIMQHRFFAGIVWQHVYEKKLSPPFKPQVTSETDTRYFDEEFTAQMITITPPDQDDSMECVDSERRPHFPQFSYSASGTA
T2 sequence (P31751 whole entry): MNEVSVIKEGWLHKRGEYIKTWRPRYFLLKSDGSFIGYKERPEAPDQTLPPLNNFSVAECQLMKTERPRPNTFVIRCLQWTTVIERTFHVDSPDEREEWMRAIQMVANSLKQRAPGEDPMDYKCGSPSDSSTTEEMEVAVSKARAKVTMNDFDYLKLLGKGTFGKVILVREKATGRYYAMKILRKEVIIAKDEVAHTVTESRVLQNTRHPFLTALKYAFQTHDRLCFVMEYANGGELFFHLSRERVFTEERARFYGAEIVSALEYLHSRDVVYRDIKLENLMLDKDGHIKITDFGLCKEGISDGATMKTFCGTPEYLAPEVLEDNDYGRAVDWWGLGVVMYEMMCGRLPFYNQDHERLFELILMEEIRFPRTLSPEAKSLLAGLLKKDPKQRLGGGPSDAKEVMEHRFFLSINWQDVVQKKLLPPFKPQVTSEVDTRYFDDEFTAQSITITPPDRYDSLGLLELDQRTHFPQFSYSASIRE

`OCCN1CCN(c2ncc3cc(-c4ccccc4)c(-c4ccc(CN5CCC(c6nnc(-c7ccccn7)[nH]6)CC5)cc4)nc3n2)CC1` gave an IC50 [1] of 9 nM, an IC50 [2] of 31 nM and an IC50 [3] of 17 nM. The IC50 [4] was 41 nM.

`CC(=O)N1CCN(c2ncc3cc(-c4ccccc4)c(-c4ccc(CN5CCC(c6nnc(-c7ccccn7)[nH]6)CC5)cc4)nc3n2)CC1` gave an IC50 [1] of 5 nM, an IC50 [2] of 16 nM and an IC50 [3] of 15 nM. For the same molecule, the IC50 [4] was 145 nM.

`c1ccc(-c2cc3cnc(N4CCCCC4)nc3nc2-c2ccc(CN3CCC(c4nnc(-c5ccccn5)[nH]4)CC3)cc2)cc1` gave an IC50 [1] of 18 nM, an IC50 [2] of 93 nM and an IC50 [3] of 36 nM. For the same molecule, the IC50 [4] was 229 nM.

Molecule `C[C@@H]1CN[C@@H](C)CN1c1ncc2cc(-c3ccccc3)c(-c3ccc(CN4CCC(c5nnc(-c6ccccn6)[nH]5)CC4)cc3)nc2n1` has an IC50 [1] of 43 nM, an IC50 [2] of 29 nM and an IC50 [3] of 194 nM. For the same molecule, the IC50 [4] was 199 nM.

`CSc1ncc2cc(-c3ccccc3)c(-c3ccc(CNCCC(=O)c4ccccc4N)cc3)nc2n1` was tested, and the IC50 [3] was 78 nM and the IC50 [4] was 388 nM.

`CN(C)C1CCN(c2ncc3cc(-c4ccccc4)c(-c4ccc(CN5CCC(c6nnc(-c7ccccn7)[nH]6)CC5)cc4)nc3n2)CC1` gave an IC50 [1] of 10 nM, an IC50 [2] of 22 nM and an IC50 [3] of 23 nM. The IC50 [4] was 70 nM.

With `CN1CCN(c2cc3cc(-c4ccccc4)c(-c4ccc(CN5CCC(c6nnc(-c7ccccn7)[nH]6)CC5)cc4)nc3cn2)CC1` the IC50 [1] was 740 nM, the IC50 [2] was 59 nM and the IC50 [3] was 924 nM. The IC50 [4] was 133 nM.

Work on `c1ccc(-c2cc3cnc(N4CCOCC4)nc3nc2-c2ccc(CN3CCC(c4nnc(-c5ccccn5)[nH]4)CC3)cc2)cc1` yielded an IC50 [1] of 5 nM, an IC50 [2] of 43 nM and an IC50 [3] of 19 nM. It also gave an IC50 [4] of 243 nM.

`OC1CCN(c2ncc3cc(-c4ccccc4)c(-c4ccc(CN5CCC(c6nnc(-c7ccccn7)[nH]6)CC5)cc4)nc3n2)CC1` showed an IC50 [1] of 7 nM, an IC50 [2] of 45 nM and an IC50 [3] of 17 nM. It also gave an IC50 [4] of 168 nM.

Molecule `FC1(F)CCN(c2ncc3cc(-c4ccccc4)c(-c4ccc(CN5CCC(c6nnc(-c7ccccn7)[nH]6)CC5)cc4)nc3n2)C1` has an IC50 [1] of 20 nM, an IC50 [2] of 252 nM and an IC50 [3] of 75 nM. The IC50 [4] was 462 nM.

`CN1CCN(c2nccc3nc(-c4ccc(CN5CCC(c6nnc(-c7ccccn7)[nH]6)CC5)cc4)c(-c4ccccc4)cc23)CC1` was tested, and the IC50 [1] was 285 nM, the IC50 [2] was 539 nM and the Activity [3] was “inactive”. The Activity [4] was “inactive”.

Work on `C[C@@H]1CN(c2ncc3cc(-c4ccccc4)c(-c4ccc(CN5CCC(c6nnc(-c7ccccn7)[nH]6)CC5)cc4)nc3n2)CCN1` yielded an IC50 [1] of 8 nM, an IC50 [2] of 25 nM and an IC50 [3] of 36 nM. It also gave an IC50 [4] of 44 nM.

With `O=S1(=O)CCN(c2ncc3cc(-c4ccccc4)c(-c4ccc(CN5CCC(c6nnc(-c7ccccn7)[nH]6)CC5)cc4)nc3n2)CC1` the IC50 [1] was 38 nM, the IC50 [2] was 297 nM and the Activity [3] was “inactive”.

Work on `CN(C)CC(=O)N1CCN(c2ncc3cc(-c4ccccc4)c(-c4ccc(CN5CCC(c6nnc(-c7ccccn7)[nH]6)CC5)cc4)nc3n2)CC1` yielded an IC50 [1] of 6 nM, an IC50 [2] of 6 nM and an IC50 [3] of 3 nM. For the same molecule, the IC50 [4] was 19 nM.

For `O[C@@H]1CN(c2ncc3cc(-c4ccccc4)c(-c4ccc(CN5CCC(c6nnc(-c7ccccn7)[nH]6)CC5)cc4)nc3n2)CCN1`, the IC50 [1] was 25 nM, the IC50 [2] was 67 nM and the IC50 [3] was 61 nM. It also gave an IC50 [4] of 421 nM.

In the case of `c1ccc(-c2cc3cnc(-n4ccnc4)nc3nc2-c2ccc(CN3CCC(c4nnc(-c5ccccn5)[nH]4)CC3)cc2)cc1`, the IC50 [1] is reported as 5 nM, the IC50 [2] is reported as 73 nM and the IC50 [3] is reported as 35 nM. The IC50 [4] was 684 nM.

`CS(=O)(=O)N1CCN(c2ncc3cc(-c4ccccc4)c(-c4ccc(CN5CCC(c6nnc(-c7ccccn7)[nH]6)CC5)cc4)nc3n2)CC1` was tested, and the IC50 [1] was 7 nM, the IC50 [2] was 23 nM and the IC50 [3] was 20 nM. For the same molecule, the IC50 [4] was 196 nM.

`CN1CC(N2CCN(c3ncc4cc(-c5ccccc5)c(-c5ccc(CN6CCC(c7nnc(-c8ccccn8)[nH]7)CC6)cc5)nc4n3)CC2)C1` gave an IC50 [1] of 12 nM, an IC50 [2] of 9 nM and an IC50 [3] of 6 nM. The IC50 [4] was 27 nM.

In the case of `C[C@H]1CN(c2ncc3cc(-c4ccccc4)c(-c4ccc(CN5CCC(c6nnc(-c7ccccn7)[nH]6)CC5)cc4)nc3n2)CCN1`, the IC50 [1] is reported as 17 nM, the IC50 [2] is reported as 47 nM and the IC50 [3] is reported as 75 nM. For the same molecule, the IC50 [4] was 125 nM.

In the case of `CN1CCN(c2nccc3cc(-c4ccccc4)c(-c4ccc(CN5CCC(c6nnc(-c7ccccn7)[nH]6)CC5)cc4)nc23)CC1`, the IC50 [1] is reported as 720 nM, the IC50 [2] is reported as 3570 nM and the Activity [3] is reported as “inactive”. For the same molecule, the Activity [4] was “inactive”.

Work on `C[C@@H]1CN(c2ncc3cc(-c4ccccc4)c(-c4ccc(CN5CCC(c6nnc(-c7ccccn7)[nH]6)CC5)cc4)nc3n2)C[C@H](C)O1` yielded an IC50 [1] of 28 nM, an IC50 [2] of 102 nM and an IC50 [3] of 42 nM. It also gave an IC50 [4] of 184 nM.

Work on `CN(C)C(=O)N1CCN(c2ncc3cc(-c4ccccc4)c(-c4ccc(CN5CCC(c6nnc(-c7ccccn7)[nH]6)CC5)cc4)nc3n2)CC1` yielded an IC50 [1] of 18 nM, an IC50 [2] of 40 nM and an IC50 [3] of 13 nM. For the same molecule, the IC50 [4] was 177 nM.

`CN1CCN(c2ncc3cc(-c4ccccc4)c(-c4ccc(CN5CCC(c6nnc(-c7ccccn7)[nH]6)CC5)cc4)nc3n2)CC1` gave an IC50 [1] of 9 nM, an IC50 [2] of 27 nM and an IC50 [3] of 36 nM. It also gave an IC50 [4] of 52 nM.

With `CN(C)CCNc1ncc2cc(-c3ccccc3)c(-c3ccc(CN4CCC(c5nnc(-c6ccccn6)[nH]5)CC4)cc3)nc2n1` the IC50 [1] was 79 nM, the IC50 [2] was 154 nM and the IC50 [3] was 208 nM. For the same molecule, the IC50 [4] was 223 nM.

With `C[C@@H]1CN(c2ncc3cc(-c4ccccc4)c(-c4ccc(CN5CCC(c6nnc(-c7ccccn7)[nH]6)CC5)cc4)nc3n2)C[C@H](C)N1` the IC50 [1] was 45 nM, the IC50 [2] was 77 nM and the IC50 [3] was 46 nM. The IC50 [4] was 101 nM.

In the case of `c1ccc(-c2cc3cnc(N4CCn5cnnc5C4)nc3nc2-c2ccc(CN3CCC(c4nnc(-c5ccccn5)[nH]4)CC3)cc2)cc1`, the IC50 [1] is reported as 19 nM, the IC50 [2] is reported as 138 nM and the IC50 [3] is reported as 125 nM. It also gave an IC50 [4] of 735 nM.
